Tests used:
[1] = biological target: T1, interaction between HIV-1 MA and arginyl-tRNA synthetase (RRS) (Homo sapiens, UniProt P54136); assay: Co-immunoprecipitation of RRS with HIV-1 MA (control); assay type: binding
T1 construct: endogenous in cells; host or cells: 293A-MA-FH cells (RRS endogenous; MA-flag stably expressed)
T1 sequence (P54136 1-660): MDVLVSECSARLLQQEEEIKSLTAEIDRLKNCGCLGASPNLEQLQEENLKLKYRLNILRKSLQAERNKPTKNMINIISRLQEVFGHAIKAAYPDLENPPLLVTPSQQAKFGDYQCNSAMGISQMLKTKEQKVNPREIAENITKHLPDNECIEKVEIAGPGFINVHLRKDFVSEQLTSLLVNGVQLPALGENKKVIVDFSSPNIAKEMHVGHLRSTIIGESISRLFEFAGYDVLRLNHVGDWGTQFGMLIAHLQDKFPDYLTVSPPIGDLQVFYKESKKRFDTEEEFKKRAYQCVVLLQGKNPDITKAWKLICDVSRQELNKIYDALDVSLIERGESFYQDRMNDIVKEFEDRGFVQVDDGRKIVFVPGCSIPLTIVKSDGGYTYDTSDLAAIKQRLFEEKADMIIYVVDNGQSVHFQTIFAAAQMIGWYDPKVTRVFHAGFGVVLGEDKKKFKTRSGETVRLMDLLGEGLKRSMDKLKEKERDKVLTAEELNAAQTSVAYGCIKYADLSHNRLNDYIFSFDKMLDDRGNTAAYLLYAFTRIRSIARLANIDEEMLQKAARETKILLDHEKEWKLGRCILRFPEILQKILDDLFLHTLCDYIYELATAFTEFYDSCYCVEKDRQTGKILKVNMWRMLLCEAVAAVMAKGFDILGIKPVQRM
Description: As a control, the interaction between MA and another MA-interacting protein, arginyl-tRNA synthetase (RRS), a subunit of the aminoacyl-tRNA synthetase complex, was also evaluated. The coimmunoprecipitation of RRS and HIV-1 MA was not affected by addition of myristic acid (FIG. 1D).

[2] = tested on: HIV-1 virion production in 293A cells; assay: Virus-like particle (VLP) detection, 293A cells transfected with pNL4.3luc, CA Western blot; details: 20-40 micromolar, 48 hours, FIG. 4C
human HO-2 = biological target: T2, human HO-2 (Homo sapiens, UniProt P30519); assay: Fatty acid binding to HO-2 (crystal structure); details: FIG. 2E
T2 construct: The HO-2 gene fragment encoding amino acid residues 30-242 was cloned into a pET28a vector; made in house; host or cells: Escherichia coli BL21 (DE3) Star
T2 sequence (P30519 30-242): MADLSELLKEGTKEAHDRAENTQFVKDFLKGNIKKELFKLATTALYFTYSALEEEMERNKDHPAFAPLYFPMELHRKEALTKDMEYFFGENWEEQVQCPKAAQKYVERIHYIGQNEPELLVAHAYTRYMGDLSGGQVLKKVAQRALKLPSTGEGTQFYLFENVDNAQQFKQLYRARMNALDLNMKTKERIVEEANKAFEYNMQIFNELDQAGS
Description: To make the myristate complex, sodium myristate was dissolved in water at 50° C., and mixed with 20 mg/ml protein solution and incubated at 37° C. water bath for 30 min. The complex solution was then used to set up crystallization by mixing with (0.1 M Bis-Tris, (pH 5.5), 28% (w/v) polyethylene glycol 550 monomethyl ether, and 5 mM MgCl2). Crystals were directly flash-frozen in liquid nitrogen.
The laurate complex crystals were obtained by soaking apo crystals in well solution with 5 mM sodium laurate overnight and transferred to well solution with 35% (w/v) of precipitant before flash-frozen in liquid nitrogen. The crystals belong to space group P212121 and there are four protein molecules in the asymmetric unit.
X-ray diffraction data sets were collected at beamline 24-ID-E of the Advanced Photon Source (APS). The data were processed with the HKL package (Otwinowski and Minor, 1997). The structures were solved by molecular replacement using entry 2Q32 from the Protein Data Bank as the model. The myristate and laurate were manually added with Coot (Emsley and Cowtan, 2004) and refined with Phenix (Adams et al., 2002).
The crystal structure was also determined at 2.1 Å resolution of human HO-2 in complex with the C12 fatty acid laurate (FIG. 2E, Table 1B). The crystal was isomorphous to that of the myristate complex. […]

SMILES: C=CC1=C(C)C2=Cc3c(C=C)c(C)c4[n]3[Sn]([Cl])([Cl])[n]3c(c(C)c(CCC(=O)O)c3=CC3=NC(=C4)C(C)=C3CCC(=O)O)=CC1=N2 [SnPPIX, tin protoporphyrin IX dichloride]
- interaction between HIV-1 MA and RRS ([1]; increasing concentrations of SnPPIX, FIG. 4B): no effect
- virus yield (CA levels in virions) [2]: dramatic increases in virus yield

SMILES: CCCCCCCCCCCCCC(=O)O [myristic acid]
- coimmunoprecipitation of RRS and HIV-1 MA ([1]; myristic acid added to cell lysates, FIG. 1D): not affected

SMILES: CCCCCCCCCCCC(=O)O [laurate]
- binding to HO-2 (human HO-2): could indeed bind
